From the supplement of paper PMC10307832

Key:
Assay in all cases: relative viability (nuclei count vs DMSO), 5 days (fraction); higher = more cells survive
[1] = compound: CC(C)C[C@H](NC(=O)[C@H](Cc1ccccc1)NC(=O)c1cnccn1)B(O)O [Bortezomib] + CC(=O)Nc1cccc(-n2c(=O)n(C3CC3)c(=O)c3c(Nc4ccc(I)cc4F)n(C)c(=O)c(C)c32)c1 [Trametinib] (partner 0.02 µM)
How it was run: (§1)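 Relative viability equals treated-well nuclei counts divided by vehicle-well nuclei counts. Counts came from 4× images of lung cancer cell lines grown in 1536-well plates for 5 days after pin-tool dosing on the day after seeding. Dosing used one drug alone or a fixed anchor-drug dose plus five library-drug doses (not always all listed) in √10 steps, and values are medians of duplicate plates.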

[2] = compound: CC(C)C[C@H](NC(=O)[C@H](Cc1ccccc1)NC(=O)c1cnccn1)B(O)O [Bortezomib] + N=C(N)NC(=N)NCCc1ccccc1 [Phenformin] (partner 250 µM)
How it was run: as §1

[3] = compound: CC1=CC(=NN1)NC2=CC(=NC(=N2)/C=C/C3=CC=CC=C3)N4CCN(CC4)C + Cc1cc(Nc2cc(N3CCN(C)CC3)nc(Sc3ccc(NC(=O)C4CC4)cc3)n2)n[nH]1 [Tozasertib] (partner 0.1 µM)
How it was run: as §1

[4] = compound: CC1=CC(=NN1)NC2=CC(=NC(=N2)/C=C/C3=CC=CC=C3)N4CCN(CC4)C + N=C(N)NC(=N)NCCc1ccccc1 [Phenformin] (partner 250 µM)
How it was run: as §1

Cell Line	relative viability ([1]; first compound 0.0002 µM)	relative viability ([1]; first compound 0.000632 µM)	relative viability ([1]; first compound 0.002 µM)	relative viability ([1]; first compound 0.006325 µM)	relative viability ([1]; first compound 0.02 µM)	relative viability ([2]; first compound 0.0002 µM)	relative viability ([2]; first compound 0.000632 µM)	relative viability ([2]; first compound 0.002 µM)	relative viability ([2]; first compound 0.006325 µM)	relative viability ([2]; first compound 0.02 µM)	relative viability ([3]; first compound 0.08 µM)	relative viability ([3]; first compound 0.253 µM)	relative viability ([3]; first compound 0.8 µM)	relative viability ([3]; first compound 2.53 µM)	relative viability ([3]; first compound 8 µM)	relative viability ([4]; first compound 0.08 µM)	relative viability ([4]; first compound 0.253 µM)	relative viability ([4]; first compound 0.8 µM)	relative viability ([4]; first compound 2.53 µM)	relative viability ([4]; first compound 8 µM)
NCI-H441	0.428	0.482	0.153	0.131	0.127	0.969	0.732	0.514	0.166	0.189	0.642	0.592	0.599	0.287	0.189	0.909	0.955	0.797	0.192	0.156
NCI-H460	0.126	0.157	0.202	0.0768	0.0189	0.347	0.526	0.554	0.0373	0.0212	0.371	0.394	0.313	0.0338	0.0166	0.552	0.597	0.514	0.0212	0.0183
NCI-H520	0.667	0.741	0.451	0.141	0.128	0.599	0.669	0.422	0.213	0.17	0.432	0.464	0.381	0.307	0.176	0.655	0.62	0.603	0.23	0.172
NCI-H522	0.753	0.821	0.796	0.387	0.331	0.58	0.618	0.573	0.62	0.448	0.559	0.579	0.684	0.462	0.399	0.664	0.632	0.712	0.544	0.484
NCI-H596	0.835	0.773	0.568	0.208	0.168	0.737	0.474	0.828	0.267	0.211	0.783	1.01	0.896	0.508	0.244	0.767	0.807	0.627	0.608	0.259
NCI-H647	0.471	0.404	0.542	0.0211	0.0513	0.479	0.444	0.267	0.0466	0.0232	0.236	0.202	0.257	0.123	0.108	0.481	0.634	0.47	0.0675	0.0451
NCI-H661	0.526	0.493	0.62	0.364	0.207	0.286	0.292	0.302	0.239	0.204	0.321	0.344	0.339	0.382	0.394	0.282	–	0.265	0.226	0.211
NCI-H727	0.367	0.43	0.363	0.413	0.266	0.542	0.475	0.548	0.301	0.178	0.568	0.533	0.578	0.407	0.267	0.398	–	0.41	0.295	0.17
NCI-H838	0.479	0.677	0.549	0.106	0.0935	0.6	0.526	0.64	0.127	0.115	0.296	0.287	0.271	0.211	0.119	0.567	0.583	0.462	0.123	0.107
NCI-H1355	0.432	0.468	0.457	0.216	0.118	0.446	0.414	0.493	0.381	0.176	0.536	0.502	0.511	0.173	0.129	0.484	0.423	0.435	0.26	0.148
NCI-H1395	1.14	0.939	0.708	0.315	0.31	0.477	0.435	0.446	0.361	0.27	0.76	0.751	0.566	0.496	0.315	0.494	0.434	0.427	0.327	0.264
NCI-H1437	0.537	0.584	0.551	0.178	0.226	0.385	0.28	0.278	0.129	0.133	0.422	0.462	0.424	0.344	0.201	0.3	0.331	0.307	0.16	0.107
NCI-H1650	0.627	0.572	0.128	0.132	0.129	0.385	0.303	0.139	0.16	0.149	0.384	0.384	0.373	0.187	0.169	0.418	0.404	0.464	0.106	0.0916
NCI-H1651	0.802	0.843	0.726	0.155	0.117	0.354	0.312	0.229	0.101	0.106	0.678	0.658	0.661	0.296	0.177	0.355	0.346	0.312	0.124	0.112
NCI-H1666	0.918	0.972	0.914	0.599	0.522	0.533	0.544	0.559	0.365	0.307	0.559	0.549	0.554	0.336	0.298	0.62	0.556	0.542	0.391	0.302
NCI-H1734	0.647	0.7	0.685	0.161	0.0924	0.454	0.37	0.356	0.155	0.105	0.256	0.238	0.239	0.227	0.157	0.417	0.375	0.391	0.162	0.104
NCI-H1755	0.761	0.77	0.706	0.279	0.223	0.683	0.596	0.592	0.23	0.229	0.539	0.563	0.524	0.333	0.211	0.658	0.616	0.551	0.333	0.221
NCI-H1793	0.445	–	0.457	0.414	0.132	0.366	0.242	0.368	0.344	0.169	0.298	0.537	0.207	0.123	0.111	0.344	0.423	0.314	0.132	0.121
NCI-H1915	0.283	0.307	0.33	0.196	0.0537	0.361	0.356	0.371	0.147	0.0571	0.462	0.34	0.334	0.16	0.135	0.368	0.393	0.337	0.234	0.165
NCI-H1944	0.43	0.371	0.397	0.297	0.193	0.198	0.185	0.213	0.201	0.155	0.266	0.284	0.223	0.184	0.136	0.195	0.225	0.186	0.166	0.119
NCI-H1975	0.501	0.312	0.152	0.11	0.0939	0.405	0.35	0.115	0.0978	0.106	0.62	0.729	0.416	0.127	0.0865	0.409	0.397	0.388	0.138	0.118
NCI-H1993	0.51	0.507	0.527	0.452	0.375	0.489	0.458	0.512	0.419	0.464	0.553	0.524	0.577	0.485	0.52	0.462	0.492	0.427	0.498	0.437
NCI-H2009	0.322	0.223	0.256	0.0731	0.0528	0.512	0.479	0.492	0.113	0.0828	0.656	0.73	0.663	0.368	0.217	0.501	0.503	0.492	0.27	0.148
NCI-H2023	0.631	0.569	0.533	0.131	0.0889	0.494	0.411	0.389	0.0877	0.0739	0.266	0.305	0.235	0.0983	0.0659	0.366	0.517	0.382	0.0903	0.0763
NCI-H2085	0.622	0.501	0.54	0.228	0.155	0.757	0.826	0.693	0.318	0.16	0.823	0.749	0.629	0.424	0.433	0.653	0.769	0.679	0.279	0.236
NCI-H2087	0.201	0.187	0.149	0.0967	0.0704	0.451	0.441	0.312	0.0487	0.0431	0.229	0.238	0.195	0.162	0.11	0.536	0.318	0.488	0.105	0.1
